Patent publication US4552864A, “Gonadoliberin derivatives process for the preparation and pharmaceutical compositions thereof” (Reanal Finomvegyszergyar, priority 1982, dated 1985)
Read-outs that look alike come from different tables or passages of the source.

Test system: adenohypophysis of female Sprague-Dawley rats (cell cultures), LH-hormone released from the cells
Conditions: for ED50 (LH release): rat pituitary cell culture, 4 hours incubation with 10^-7 to 10^-12 molar peptide; for relative activity (GnRH = 1.00): relative LH-releasing activity versus GnRH, from ED50 values
Description: The LH-releasing activity of the new peptides according to the invention was tested by the following method, in which for comparison the known gonadoliberin was employed under the same conditions.
The adenohypophysis of female Sprague-Dawley rats weighing 150-200 g each was eliminated and pretrypsinized. Approximately 40-50 pituitaries were placed into separate flasks and allowed to stand in 25 ml of a 0.25% trypsin solution (Sigma, type 111) at 0° to 4° C. for 16 hours. The pituitaries were then stirred under a 5% CO2 atmosphere at 37° C. for 20-25 minutes while they were decomposed to their cells. To the cell suspension soya-bean trypsin inhibitor was added whereupon it was suspended and centrifuged in a Medium 199 solution (with Earle's salts, Flow Laboratories, UK) three times (800 x g, 10 minutes). The cell suspension was padded through a sterile metal filter and the number of cells in one ml was counted. After counting, 3 ml of the cell suspension was dispensed into culture flasks each containing 1.8×10^6 cells. The cells were cultured for 3 days at 37° C. under a 5% CO2 atmosphere. On the 3rd day the medium was replaced by a fresh one and incubation was continued for one more day. On the 4th day the medium was changed again and a medium containing a 10^-7 to 10^-12 molar solution of the peptides to be tested was added to the cell cultures. The cells were incubated with the peptide solutions for 4 hours, the culture solutions were eliminated and the amount of the LH-hormone released from the cells was determined by radioimunoassay.

Substance	ED50 (LH release)	relative activity (GnRH = 1.00)	ED50 (LH release) (unit as printed for GnRH)
Glp-His-Trp-Ser-Tyr-D-Cpa-Leu-Arg-Pro-Gly-NH2 [D-Cpa^6 -GnRH]	0.02063 nM	16.6	
Glp-His-Trp-Ser-Tyr-D-Thx-Leu-Arg-Pro-Gly-NH2 [D-Thx^6 -GnRH]	0.02892 nM	11.9	
Gonadoliberin [GnRH, reference compound]		1.00	0.343 nM
